{"source": "patent US5502035A", "about": "“N-terminus modified analogs of LHRH” (Tap Holdings Inc., priority 1994, dated 1996)", "note": "Non-standard residues stand in square brackets, D forms with d. Residues, ends and D or L forms follow the SMILES beside them. *: point of attachment. Shikimoyl = O=C(C1=C[C@@H](O)[C@@H](O)[C@H](O)C1)*; dPhe(4-Cl) = N[C@H](Cc1ccc(Cl)cc1)C(=O)O; d2Nal = N[C@H](Cc1ccc2ccccc2c1)C(=O)O; Acetyl(3-pyridyl) = O=C(Cc1cccnc1)*; NMeY = CN[C@@H](Cc1ccc(O)cc1)C(=O)O; dCit = NC(=O)NCCC[C@@H](N)C(=O)O; hArg = N=C(N)NCCCC[C@H](N)C(=O)O; d3Pal = N[C@H](Cc1cccnc1)C(=O)O; Isonicotinoyl = O=C(c1ccncc1)*; Nicotinoyl = O=C(c1cccnc1)*; Picolinoyl = O=C(c1ccccn1)*; X2 = O=C1CC[C@@H](C(=O)*)O1; X8 = O=C1CC[C@H](C(=O)*)O1; 2Furoyl = O=C(c1ccco1)*", "data": [{"target": "T1, LHRH (Rattus norvegicus, UniProt P30969)", "T1 construct": "endogenous in cells; host or cells: rat pituitary cells (own knowledge of the cited Haviv 1989 method)", "T1 sequence (P30969 1-327)": "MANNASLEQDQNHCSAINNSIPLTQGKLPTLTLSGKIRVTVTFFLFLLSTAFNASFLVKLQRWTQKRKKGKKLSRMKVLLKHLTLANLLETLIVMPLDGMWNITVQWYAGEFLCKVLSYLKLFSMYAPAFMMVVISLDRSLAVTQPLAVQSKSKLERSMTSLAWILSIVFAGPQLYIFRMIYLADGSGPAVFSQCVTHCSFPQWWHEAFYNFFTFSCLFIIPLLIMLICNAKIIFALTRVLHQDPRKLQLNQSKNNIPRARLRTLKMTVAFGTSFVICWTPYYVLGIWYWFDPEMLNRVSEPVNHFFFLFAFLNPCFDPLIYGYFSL", "experiment": "in vitro test for LHRH antagonist potency (pA2)", "type": "cell-based", "conditions": "negative logarithm of the antagonist concentration required to shift the response curve produced by the agonist leuprolide to two-fold higher concentration", "method_in_brief": "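Rat LHRH receptor in vitro functional test; pA2 = negative log of the antagonist concentration shifting the leuprolide agonist response curve to two-fold higher concentration.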", "units": {"Kb": "nM"}, "values": [{"smiles": "CC(C)C[C@H](NC(=O)[C@@H](CCCNC(N)=O)NC(=O)[C@H](Cc1ccc(O)cc1)N(C)C(=O)[C@H](CO)NC(=O)[C@@H](Cc1cccnc1)NC(=O)[C@@H](Cc1ccc(Cl)cc1)NC(=O)[C@@H](Cc1ccc2ccccc2c1)NC(=O)[C@H]1CCC(=O)O1)C(=O)N[C@@H](CCCNC(=N)N)C(=O)N1CCC[C@H]1C(=O)N[C@H](C)C(N)=O", "note": "[Example 78a, N-(R)-5-Oxo-tetrahydrofur-2-oyl-D2Nal-D4ClPhe-D3Pal-Ser-NMeTyr-DCit-Leu-Arg-Pro-DAlaNH2] (X8-[d2Nal][dPhe(4-Cl)][d3Pal]S[NMeY][dCit]LRP[dA]-NH2)", "Kb": 0.0105}, {"smiles": "CC(C)C[C@H](NC(=O)[C@@H](CCCNC(N)=O)NC(=O)[C@H](Cc1ccc(O)cc1)N(C)C(=O)[C@H](CO)NC(=O)[C@@H](Cc1cccnc1)NC(=O)[C@@H](Cc1ccc(Cl)cc1)NC(=O)[C@@H](Cc1ccc2ccccc2c1)NC(=O)[C@@H]1CCC(=O)O1)C(=O)N[C@@H](CCCNC(=N)N)C(=O)N1CCC[C@H]1C(=O)N[C@H](C)C(N)=O", "note": "[Example 78b, N-(S)-5-Oxo-tetrahydrofur-2-oyl-D2Nal-D4ClPhe-D3Pal-Ser-NMeTyr-DCit-Leu-Arg-Pro-DAlaNH2] (X2-[d2Nal][dPhe(4-Cl)][d3Pal]S[NMeY][dCit]LRP[dA]-NH2)", "Kb": 0.00832}, {"smiles": "CC(C)C[C@H](NC(=O)[C@@H](CCCNC(N)=O)NC(=O)[C@H](Cc1ccc(O)cc1)N(C)C(=O)[C@H](CO)NC(=O)[C@@H](Cc1cccnc1)NC(=O)[C@@H](Cc1ccc(Cl)cc1)NC(=O)[C@@H](Cc1ccc2ccccc2c1)NC(=O)C1=C[C@@H](O)[C@@H](O)[C@H](O)C1)C(=O)N[C@@H](CCCNC(=N)N)C(=O)N1CCC[C@H]1C(=O)N[C@H](C)C(N)=O", "note": "[Example 78c, N-Shikimyl-D2Nal-D4ClPhe-D3Pal-Ser-NMeTyr-DCit-Leu-Arg-Pro-DAlaNH2] (Shikimoyl-[d2Nal][dPhe(4-Cl)][d3Pal]S[NMeY][dCit]LRP[dA]-NH2)", "Kb": 0.0132}, {"smiles": "CC(C)C[C@H](NC(=O)[C@@H](CCCNC(N)=O)NC(=O)[C@H](Cc1ccc(O)cc1)N(C)C(=O)[C@H](CO)NC(=O)[C@@H](Cc1cccnc1)NC(=O)[C@@H](Cc1ccc(Cl)cc1)NC(=O)[C@@H](Cc1ccc2ccccc2c1)NC(=O)c1ccco1)C(=O)N[C@@H](CCCNC(=N)N)C(=O)N1CCC[C@H]1C(=O)N[C@H](C)C(N)=O", "note": "[Example 78d, N-2-Furoyl-D2Nal-D4ClPhe-D3Pal-Ser-NMeTyr-DCit-Leu-Arg-Pro-DAlaNH2] (2Furoyl-[d2Nal][dPhe(4-Cl)][d3Pal]S[NMeY][dCit]LRP[dA]-NH2)", "Kb": 0.00794}, {"smiles": "CC(C)C[C@H](NC(=O)[C@@H](CCCNC(N)=O)NC(=O)[C@H](Cc1ccc(O)cc1)N(C)C(=O)[C@H](CO)NC(=O)[C@@H](Cc1cccnc1)NC(=O)[C@@H](Cc1ccc(Cl)cc1)NC(=O)[C@@H](Cc1ccc2ccccc2c1)NC(=O)c1ccncc1)C(=O)N[C@@H](CCCNC(=N)N)C(=O)N1CCC[C@H]1C(=O)N[C@H](C)C(N)=O", "note": "[Example 78e, N-Isonicotinyl-D2Nal-D4ClPhe-D3Pal-Ser-NMeTyr-DCit-Leu-Arg-Pro-DAlaNH2] (Isonicotinoyl-[d2Nal][dPhe(4-Cl)][d3Pal]S[NMeY][dCit]LRP[dA]-NH2)", "Kb": 0.0162}, {"smiles": "CC(C)C[C@H](NC(=O)[C@@H](CCCNC(N)=O)NC(=O)[C@H](Cc1ccc(O)cc1)N(C)C(=O)[C@H](CO)NC(=O)[C@@H](Cc1cccnc1)NC(=O)[C@@H](Cc1ccc(Cl)cc1)NC(=O)[C@@H](Cc1ccc2ccccc2c1)NC(=O)c1ccccn1)C(=O)N[C@@H](CCCNC(=N)N)C(=O)N1CCC[C@H]1C(=O)N[C@H](C)C(N)=O", "note": "[Example 78f, N-Picolinoyl-D2Nal-D4ClPhe-D3Pal-Ser-NMeTyr-DCit-Leu-Arg-Pro-DAlaNH2] (Picolinoyl-[d2Nal][dPhe(4-Cl)][d3Pal]S[NMeY][dCit]LRP[dA]-NH2)", "Kb": 0.0316}, {"smiles": "CC(C)C[C@H](NC(=O)[C@@H](CCCNC(N)=O)NC(=O)[C@H](Cc1ccc(O)cc1)N(C)C(=O)[C@H](CO)NC(=O)[C@@H](Cc1cccnc1)NC(=O)[C@@H](Cc1ccc(Cl)cc1)NC(=O)[C@@H](Cc1ccc2ccccc2c1)NC(=O)c1cccnc1)C(=O)N[C@@H](CCCNC(=N)N)C(=O)N1CCC[C@H]1C(=O)N[C@H](C)C(N)=O", "note": "[Example 78g, N-Nicotinyl-D2Nal-D4ClPhe-D3Pal-Ser-NMeTyr-DCit-Leu-Arg-Pro-DAlaNH2] (Nicotinoyl-[d2Nal][dPhe(4-Cl)][d3Pal]S[NMeY][dCit]LRP[dA]-NH2)", "Kb": 0.00708}, {"smiles": "CC(C)C[C@H](NC(=O)[C@@H](CCCNC(N)=O)NC(=O)[C@H](Cc1ccc(O)cc1)N(C)C(=O)[C@H](CO)NC(=O)[C@@H](Cc1cccnc1)NC(=O)[C@@H](Cc1ccc(Cl)cc1)NC(=O)[C@@H](Cc1ccc2ccccc2c1)NC(=O)Cc1cccnc1)C(=O)N[C@@H](CCCNC(=N)N)C(=O)N1CCC[C@H]1C(=O)N[C@H](C)C(N)=O", "note": "[Example 78h, N-(3-Pyridylacetyl)-D2Nal-D4ClPhe-D3Pal-Ser-NMeTyr-DCit-Leu-Arg-Pro-DAlaNH2] ({Acetyl(3-pyridyl)}-[d2Nal][dPhe(4-Cl)][d3Pal]S[NMeY][dCit]LRP[dA]-NH2)", "Kb": 0.0316}, {"smiles": "CC(C)C[C@H](NC(=O)[C@@H](CCCCNC(=O)C1=C[C@@H](O)[C@@H](O)[C@H](O)C1)NC(=O)[C@H](Cc1ccc(O)cc1)N(C)C(=O)[C@H](CO)NC(=O)[C@@H](Cc1cccnc1)NC(=O)[C@@H](Cc1ccc(Cl)cc1)NC(=O)[C@@H](Cc1ccc2ccccc2c1)NC(=O)C1=C[C@@H](O)[C@@H](O)[C@H](O)C1)C(=O)N[C@@H](CCCCNC(=N)N)C(=O)N1CCC[C@H]1C(=O)N[C@H](C)C(N)=O", "note": "[Example 79, N-Shikimyl-D2Nal-D4ClPhe-D3Pal-Ser-NMeTyr-DLys(Shik)-Leu-Harg-Pro-DAlaNH2] (Shikimoyl-[d2Nal][dPhe(4-Cl)][d3Pal]S[NMeY][dK](Shikimoyl)L[hArg]P[dA]-NH2)", "Kb": 0.0195}, {"smiles": "CC(C)C[C@H](NC(=O)[C@@H](CCCCNC(=O)c1cccnc1)NC(=O)[C@H](Cc1ccc(O)cc1)N(C)C(=O)[C@H](CO)NC(=O)[C@@H](Cc1cccnc1)NC(=O)[C@@H](Cc1ccc(Cl)cc1)NC(=O)[C@@H](Cc1ccc2ccccc2c1)NC(=O)CNC(=O)[C@@H]1CCCO1)C(=O)N[C@@H](CCCCNC(C)C)C(=O)N1CCC[C@H]1C(=O)N[C@@H](C)C(N)=O", "note": "[Example 80, N-(S)-2-Tetrahydrofuroyl-Gly-D2Nal-D4ClPhe-D3Pal-Ser-NMeTyr-DLys(N-epsilon- Nicotinyl) -Leu-Lys(N-epsilon-Isopropyl)-Pro-AlaH2]", "Kb": 0.0126}, {"smiles": "CC(C)C[C@H](NC(=O)[C@@H](CCCCNC(=O)c1cccnc1)NC(=O)[C@H](Cc1ccc(O)cc1)N(C)C(=O)[C@H](CO)NC(=O)[C@@H](Cc1cccnc1)NC(=O)[C@@H](Cc1ccc(Cl)cc1)NC(=O)[C@H](Cc1ccc2ccccc2c1)NC(=O)CNC(=O)[C@@H]1CCCO1)C(=O)N[C@@H](CCCCNC(C)C)C(=O)N1CCC[C@H]1C(=O)N[C@H](C)C(N)=O", "note": "[Example 81, (S)-2-Tetrahydrofuroyl-Gly-2Nal-D4ClPhe-D3Pal-Ser-NMeTyr-DLys(N-epsilon-Nicotinyl) -Leu-Lys(N-epsilon-Isopropyl)-Pro-DAlaNH2]", "Kb": 0.891}, {"smiles": "CC(C)C[C@H](NC(=O)[C@@H](CCCCNC(=O)c1cccnc1)NC(=O)[C@H](Cc1ccc(O)cc1)N(C)C(=O)[C@@H](CO)NC(=O)[C@@H](Cc1cccnc1)NC(=O)[C@@H](Cc1ccc(Cl)cc1)NC(=O)[C@@H](Cc1ccc2ccccc2c1)NC(=O)CNC(=O)[C@@H]1CCCO1)C(=O)N[C@@H](CCCCNC(C)C)C(=O)N1CCC[C@H]1C(=O)N[C@H](C)C(N)=O", "note": "[Example 82, N (S)-2-Tetrahydrofuroyl-Gly-D2Nal-D4ClPhe-D3Pal-DSer-NMeTyr-DLys(N-epsilon-Nicotinyl) -Leu-Lys(N-epsilon-Isopropyl)-Pro-DAlaNH2]", "Kb": 1.12}]}]}
